{"source": "patent US12070464B2", "about": "“Methods of treating myeloproliferative disorders” (priority 2019, dated 2024)", "key": {"[1]": {"tested_on": "CD34+ cells isolated from the bone marrow of two healthy donors", "assay": "Megakaryocyte differentiation and proliferation, alone and with ruxolitinib, 10 days (FACS)", "format": "cell-based", "settings": "240 h", "source_text": "The cells were then harvested for FACS analysis with live/dead stain and gating with CD34 (progenitor marker) and CD41a and CD42b (mature megakaryocyte markers)."}, "myelofibrosis patients": {"tested_on": "myelofibrosis patients", "settings": "cited from earlier work"}}, "note": "Where two headings read alike, the source gives them in different places.", "data": [{"compound": "N#CC[C@H](C1CCCC1)n1cc(-c2ncnc3[nH]ccc23)cn1", "note": "[Ruxolitinib, (R)-3-(4-(7H-pyrrolo[2,3-d]pyrimidin-4-yl)-1H-pyrazol-1-yl)-3-cyclopentylpropanenitrile phosphate, reference compound]", "values": [{"measurement": "EC50", "setting": "[1]; 10 days, Donor 1, percent of cells double positive for CD41a and CD42b, read-out: Megakaryocyte differentiation EC50", "value": 517, "unit": "nM"}, {"measurement": "EC50", "setting": "[1]; 10 days, Donor 1, read-out: Megakaryocyte live count EC50", "value": 312, "unit": "nM"}, {"measurement": "EC50", "setting": "[1]; 10 days, Donor 1, read-out: Total live count EC50", "value": 288, "unit": "nM"}, {"measurement": "EC50", "setting": "[1]; 10 days, Donor 1, read-out: Viability EC50", "value": 676, "unit": "nM"}, {"measurement": "EC50", "setting": "[1]; 10 days, Donor 2, percent of cells double positive for CD41a and CD42b, read-out: Megakaryocyte differentiation EC50", "value": 535, "unit": "nM"}, {"measurement": "EC50", "setting": "[1]; 10 days, Donor 2, read-out: Megakaryocyte live count EC50", "value": 258, "unit": "nM"}, {"measurement": "EC50", "setting": "[1]; 10 days, Donor 2, read-out: Total live count EC50", "value": 259, "unit": "nM"}, {"measurement": "EC50", "setting": "[1]; 10 days, Donor 2, read-out: Viability EC50", "value": 611, "unit": "nM"}, {"measurement": "EC50", "setting": "[1]; 10 days, Mean of two donors, read-out: Megakaryocyte differentiation EC50", "value": 526, "unit": "nM"}, {"measurement": "EC50", "setting": "[1]; 10 days, Mean of two donors, read-out: Megakaryocyte live count EC50", "value": 285, "unit": "nM"}, {"measurement": "EC50", "setting": "[1]; 10 days, Mean of two donors, read-out: Viability EC50", "value": 644, "unit": "nM"}, {"measurement": "EC50", "setting": "[1]; read-out: Total live count EC50 (overall cell proliferation)", "value": 274, "unit": "nM"}, {"measurement": "effect on mutant allele burden and bone marrow fibrosis", "setting": "myelofibrosis patients; Curr Hematol Malig Rep 2017", "value": "does not affect the mutant allele burden or bone marrow fibrosis"}, {"measurement": "effect on red blood cell production and hemoglobin levels", "setting": "myelofibrosis patients; in vivo", "value": "known to decrease red blood cell production and hemoglobin levels"}]}]}
